Test results from ChEMBL document CHEMBL4342432, “Hydroxyl substituted benzoic acid/cinnamic acid derivatives: Tyrosinase inhibitory kinetics, anti-melanogenic activity and molecular docking studies” (Bioorg Med Chem Lett, 2020).
Activity calls are given as the source filed them. The calls are words filed in the database; no cut-off is given here.

What was measured:
[1] = Cytotoxicity against mouse B16F10 cells assessed as cell viability at 30 ug/ml incubated for 24 hrs by MTT assay relative to control; type: cell-based, B16-F10; conditions: read-out: Activity
[2] = Cytotoxicity against mouse B16F10 cells assessed as cell viability at 40 ug/ml incubated for 24 hrs by MTT assay relative to control; type: cell-based, B16-F10; conditions: read-out: Activity
Tyrosinase [3] = target: T1, Tyrosinase (Agaricus bisporus, UniProt O42713); assay: Inhibition of mushroom tyrosinase assessed as reduction in dopachrome formation using L-DOPA as substrate preincubated for 10 mins followed by substrate addition and further incubated for 20 mins by microplate reader assay
T1 sequence (O42713 whole entry): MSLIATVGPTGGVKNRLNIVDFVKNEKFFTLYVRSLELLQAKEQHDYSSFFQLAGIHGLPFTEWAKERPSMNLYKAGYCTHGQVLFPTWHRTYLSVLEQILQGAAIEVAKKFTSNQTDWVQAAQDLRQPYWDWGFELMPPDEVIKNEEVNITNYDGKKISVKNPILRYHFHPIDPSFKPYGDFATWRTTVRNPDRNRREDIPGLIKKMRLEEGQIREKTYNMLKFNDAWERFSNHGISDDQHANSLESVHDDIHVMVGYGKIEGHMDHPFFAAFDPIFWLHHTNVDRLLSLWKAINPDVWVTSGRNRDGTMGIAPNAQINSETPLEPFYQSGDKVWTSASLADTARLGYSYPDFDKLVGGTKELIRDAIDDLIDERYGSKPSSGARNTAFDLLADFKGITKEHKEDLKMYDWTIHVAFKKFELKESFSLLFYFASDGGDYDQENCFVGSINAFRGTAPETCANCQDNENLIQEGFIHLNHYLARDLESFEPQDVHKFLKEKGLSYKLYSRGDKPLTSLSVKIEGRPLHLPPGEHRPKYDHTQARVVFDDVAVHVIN

[4] = target: T2, Tyrosinase (Mus musculus) (UniProt P11344); assay: Inhibition of tyrosinase in mouse B16F10 cells assessed as transformation of L-DOPA into dopachrome measured after 24 hrs by microplate reader analysis; type: cell-based
T2 sequence (whole entry): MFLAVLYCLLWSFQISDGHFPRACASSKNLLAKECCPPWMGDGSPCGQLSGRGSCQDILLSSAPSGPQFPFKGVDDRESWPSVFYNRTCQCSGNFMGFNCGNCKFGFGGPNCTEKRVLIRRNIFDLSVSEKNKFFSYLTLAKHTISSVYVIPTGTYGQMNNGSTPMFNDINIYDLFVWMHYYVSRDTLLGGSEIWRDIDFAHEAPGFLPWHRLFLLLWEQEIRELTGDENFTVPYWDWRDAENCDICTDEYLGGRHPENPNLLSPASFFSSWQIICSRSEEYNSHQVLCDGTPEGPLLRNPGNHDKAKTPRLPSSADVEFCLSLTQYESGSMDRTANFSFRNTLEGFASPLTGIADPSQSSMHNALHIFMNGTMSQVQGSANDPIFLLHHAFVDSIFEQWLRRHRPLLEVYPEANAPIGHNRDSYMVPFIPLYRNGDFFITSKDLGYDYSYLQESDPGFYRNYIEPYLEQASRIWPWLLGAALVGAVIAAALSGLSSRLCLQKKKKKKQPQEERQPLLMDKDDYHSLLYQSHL

B16-F10 = assay: Cytotoxicity against mouse B16F10 cells assessed as effect on cell morphology at 20 to 60 ug/ml incubated for 24 hrs by fluorescent inverted microscopy analysis; type: cell-based; conditions: b16-f10, 24 h
Tyrosinase [5] = target: T1, Tyrosinase
[6] = target: T2, Tyrosinase (Mus musculus); assay: Inhibition of tyrosinase in mouse B16F10 cells assessed as alpha-MSH-stimulated melanogenesis measured as melanin content at 25 to 30 ug/ml measured after 24 hrs in presence of alpha-MSH by microplate reader analysis; type: cell-based

Row | SMILES | IC50 (Tyrosinase [3]) [µM] | other results
1 | COc1cccc(OC(=O)COC(=O)c2ccc(O)c(O)c2)c1 | 299 | 
2 | COc1cccc(OC(=O)COC(=O)c2ccc(O)cc2)c1 | 338 | 
3 | COc1cccc(OC(=O)COC(=O)c2cccc(O)c2)c1 | 315 | 
4 | COc1cccc(OC(=O)COC(=O)c2cc(O)cc(O)c2)c1 | 193 | 

Stronger by IC50 (Tyrosinase [3]), values ahead:

Row | IC50 (Tyrosinase [3]) [µM] | SMILES | other results
5 | 5.7 | COc1cccc(OC(=O)COC(=O)/C=C/c2ccc(O)cc2)c1 | viability at 24 h, 30 ug/ml [1]: > 99%; viability at 24 h, 40 ug/ml [2]: > 95%; inhibition [4]: Dose-dependent effect; Activity (B16-F10): Non-Toxic; Ki (Tyrosinase [5]): 11 µM; inhibition [6]: Active
6 | 173 | COc1cccc(OC(=O)COC(=O)/C=C/c2ccccc2O)c1 | 
7 | 39.4 | COc1cccc(OC(=O)COC(=O)/C=C/c2ccccc2)c1 | 
8 | 124 | O=C(/C=C/c1ccc(O)cc1)OCC(=O)Oc1ccc2ccc(=O)oc2c1 | 
9 | 23.8 | COc1cccc(OC(=O)COC(=O)c2ccc(O)cc2O)c1 | Ki (Tyrosinase [5]): 130 µM
